Experiments:
Assay type in all cases: in vivo, human
[1] = tested on: healthy subjects by MTHFR C677T genotype; assay: Blood pressure response to riboflavin intervention in healthy individuals; details: for Diastolic blood pressure / Systolic blood pressure: healthy subjects, median
Description: (§1) Blood pressure measurements were recorded as the mean of two separate measurements taken 15 minutes apart using an Omcron 705CP electronic blood pressure monitor (Medisave, Dorset, UK). Weight (kg) and height in (m), were used to calculate BMI (weight (kg)/height^2 (m)). Waist circumference (cm) was also measured. All measurements were made using Seca approved equipment (Brosch Direct, Ltd, Peterborough, UK).
Measurements were taken and recorded according to the procedures described in Example 1 above. The results obtained, namely the baseline characteristics of healthy subjects pre-screened and age-matched for MTHFR genotype (n=124), are shown in Table 4.
A placebo controlled intervention study in 81 healthy individuals was carried out.

[2] = tested on: premature CVD patients by MTHFR C677T genotype; assay: Blood pressure in 16-week placebo controlled riboflavin intervention trial, premature CVD patients; details: for Diastolic blood pressure / Systolic blood pressure: mean (SD)
Description: (§2) Ethical approval was granted by both the Research Ethical Committee of the University of Ulster and Altnagelvin Hospital Trust, Londonderry, Northern Ireland. Premature CVD patients, males aged 55 years and females aged 65 years and under at time of event were recruited from the cardiac department of Altnagelvin hospital. Patients were indicated by a previous myocardial infarction (MI) or angina diagnosed by ECG changes. Potential participants (n=404) were screened for MTHFR genotype on the basis of a buccal swab sample. Those with the TT genotype were identified (n=54); these were age and sex matched with a similar number of patients with the CC or CT genotypes, resulting in a total of 197 patients who were invited to participate in the current intervention study (see FIG. 1). Exclusion criteria for all subjects were history of hepatic or renal disease, consumers of B-vitamin supplements, those taking medication known to interfere with folate metabolism, at least 3 months post MI prior to blood sampling. All volunteers provided written informed consent and completed a health and medical/lifestyle questionnaire which included questions regarding family history of CVD and smoking habits.
(§3) The study was a 16-week placebo controlled intervention trial. […] Non-fasting blood samples were collected at screening and post intervention either at Altnagelvin hospital, their workplace or their own homes.
as §1
All statistical analysis was performed using the SPSS statistical package for the social sciences (version 11.0, SPSS UK Ltd., Chersey, United Kingdom). For normalisation purposes variables were log-transformed as appropriate prior to statistical analysis. One way ANOVA with Tukey's post hoc test was used to examine the differences in the baseline characteristics among the genotype groups. Categorical data were assessed using chi squared analysis. Correlation analysis was performed using bivariate Pearson correlation coefficients. […] P values<0.05 were considered significant.

[3] = tested on: premature CVD patients by MTHFR C677T genotype; assay: Plasma homocysteine (immunoassay) in 16-week riboflavin intervention trial, premature CVD patients; details: mean (SD)
Description: as §2, §3
One 30 ml blood sample was collected from each patient, one 9 ml EDTA tube for plasma and washed red cells, one 4 ml EDTA tube for the preparation of red blood cell lysates and the measurement of haemoglobin (HB) and packed cell volume (PCV); one 8 ml serum separation tube for serum extraction, one 5 ml serum separation tube for lipid profile analysis and one 4 ml sodium citrate tube for coagulation screening. The 9 ml EDTA was immediately wrapped in tin foil and placed on ice. Samples were centrifuged within 2 hours of sampling at 3000 rpm for 15 minutes. Plasma was removed and stored at −80° C. for plasma homocysteine and PLP analysis. The buffy layer was removed for confirmation of MTHFR genotyping and stored at −20° C. The remaining red blood cells were thrice washed with phosphate buffered saline (PBS) with the supernatant and remaining buffy layer being discarded after each wash. […] Serum was removed and stored at −80° C. for serum folate.
Plasma homocysteine was measured by immunoassay using the Abbott Imx analyser (Leino A., 1999, “Fully automated measurement of total homocysteine in plasma and serum on the Abbott IMx analyzer.” Clin. Chem, 45, 569-71). Serum folate and red blood cell folate concentrations were determined by microbiological assay using the cryopreserved, microtitre plate method (Molloy et al, 1997, “Microbiological assay for serum, plasma, and red cell folate using cryopreserved, microtiter plate method.” Methods Enzymol, 281, 43-53). Plasma PLP was determined by reverse-phase high pressure liquid chromatography (HPLC) with fluorescence detection (Bates et al, 1999, “Plasma pyridoxal phosphate and pyridoxic acid and their relationship to plasma homocysteine in a representative sample of British men and women aged 65 years and over.” British Journal of Nutrition, 1, 191-201). Identification of the MTHFR C677T genotype was carried out using the polymerase chain reaction (PCR) amplification followed by HinF1 (Frosst et al, 1995, “A candidate genetic risk factor for vascular disease: A common mutation in methylenetetrahydrofolate reductase.” Nat Genetc, 10, 111-113). […] Coagulation screening was measured by ACI Instrumentation Laboratories. HB and PCV were measured using Sysmex XE-2100 (Sysmex, UK Ltd. Milton Keynes UK) analyser and lipid profiles were measured using Abbott Architect CI 8200 analyser (Abbott Laboratories, USA). For all assays, samples were analysed blind, in duplicate and within 1 year of collection. […]

[4] = CC genotype, After riboflavin 1.6 mg/d, 16 weeks
[5] = CC genotype, Before intervention
[6] = CT genotype, After riboflavin 1.6 mg/d, 16 weeks
[7] = CT genotype, Before intervention
[8] = TT genotype, After riboflavin 1.6 mg/d, 16 weeks
[9] = TT genotype, Before intervention
[10] = CC genotype, premature CVD patients, Post 16 weeks riboflavin 1.6 mg/day, n = 32
[11] = CC genotype, premature CVD patients, Pre intervention, n = 32
[12] = CT genotype, premature CVD patients, Post 16 weeks riboflavin 1.6 mg/day, n = 35
[13] = CT genotype, premature CVD patients, Pre intervention, n = 35
[14] = TT genotype, premature CVD patients, 16 weeks low-dose riboflavin
[15] = TT genotype, premature CVD patients, Post 16 weeks riboflavin 1.6 mg/day, n = 25
[16] = TT genotype, premature CVD patients, Pre intervention, n = 25
[17] = estimated from the magnitude of blood pressure lowering in TT patients

SMILES: Cc1cc2nc3c(=O)[nH]c(=O)nc-3n(C[C@H](O)[C@H](O)[C@H](O)CO)c2cc1C [Riboflavin, riboflavin]
- effect on systolic or diastolic blood pressure ([1]; healthy cohort with the TT genotype, 1.6 mg/day for 16 weeks): no significant systolic or diastolic blood pressure lowering effect
- effect on diastolic blood pressure ([1]; healthy individuals, CC group, 1.6 mg/day for 16 weeks): increase
- Diastolic blood pressure [1, 4]: 86.5 mmHg
- Systolic blood pressure [1, 4]: 143.5 mmHg
- Diastolic blood pressure [1, 5]: 80.5 mmHg
- Systolic blood pressure [1, 5]: 137.0 mmHg
- Diastolic blood pressure [1, 6]: 89.0 mmHg
- Systolic blood pressure [1, 6]: 150.0 mmHg
- Diastolic blood pressure [1, 7]: 87.0 mmHg
- Systolic blood pressure [1, 7]: 150.0 mmHg
- Diastolic blood pressure [1, 8]: 88.5 mmHg
- Systolic blood pressure [1, 8]: 145.0 mmHg
- Diastolic blood pressure [1, 9]: 88.5 mmHg
- Systolic blood pressure [1, 9]: 139.5 mmHg
- Diastolic blood pressure [2, 10]: 80.4 (12.0) mmHg
- Systolic blood pressure [2, 10]: 133.4 (15.3) mmHg
- Diastolic blood pressure [2, 11]: 80.1 (8.9) mmHg
- Systolic blood pressure [2, 11]: 134.3 (14.9) mmHg
- effect on blood pressure (either systolic or diastolic) ([2]; CC genotype, premature CVD patients, following riboflavin administration): no significant reduction
- Diastolic blood pressure [2, 12]: 84.2 (9.2) mmHg
- Systolic blood pressure [2, 12]: 135.4 (15.4) mmHg
- Diastolic blood pressure [2, 13]: 86.0 (10.8) mmHg
- Systolic blood pressure [2, 13]: 136.2 (16.9) mmHg
- decrease in diastolic blood pressure [2, 14]: 8 units
- decrease in systolic blood pressure [2, 14]: 11 units
- effect on systolic and diastolic blood pressure [2, 14]: significant lowering
- Diastolic blood pressure [2, 15]: 80.2 (14.2) mmHg
- Systolic blood pressure [2, 15]: 131.6 (20.9) mmHg
- Diastolic blood pressure [2, 16]: 88.1 (14.2) mmHg
- Systolic blood pressure [2, 16]: 142.8 (22.1) mmHg
- lowering of risk of heart disease estimated from meta-analyses [2, 17]: 29%
- lowering of risk of stroke estimated from meta-analyses [2, 17]: 46%
- Homocysteine ([3]; CC genotype, Post 16 weeks riboflavin 1.6 mg/day, n = 32): 9.8 (3.6) μmol/l
- Homocysteine ([3]; CC genotype, Pre intervention, n = 32): 10.1 (3.9) μmol/l
- Homocysteine ([3]; CT genotype, Post 16 weeks riboflavin 1.6 mg/day, n = 35): 10.6 (6.3) μmol/l
- Homocysteine ([3]; CT genotype, Pre intervention, n = 35): 10.5 (3.8) μmol/l
- Homocysteine ([3]; TT genotype, Post 16 weeks riboflavin 1.6 mg/day, n = 25): 10.0 (3.1) μmol/l
- Homocysteine ([3]; TT genotype, Pre intervention, n = 25): 11.3 (4.4) μmol/l

— US20100324019A1 (priority 2007, published 2010)
